# Experimental data as given in US20210000966A1, “HSP90-TARGETING CONJUGATES AND FORMULATIONS THEREOF” (TARVEDA THERAPEUTICS, INC., priority 2017, published 2021).
# Like-named read-outs stand apart in the source and are kept apart here.
# Legend:
# MEK = MEK activity (FIG. 8C); type: biochemical; details: in words
# From the text: The activity of the respective payload is blocked until the linker moiety gets cleaved in the tumor and releases active unblocked payload. Through the HSP90 platform, toxicity is mitigated by masking the payload's active site until it can be delivered to the tumor.
# FIG. 8A compares the activity of Conjugate 45 and its payload (talazoparib). FIG. 8B compares the activity of Conjugate 46 and its payload (ulixertinib). FIG. 8C compares the activity of Conjugate 47 and its payload TAK-733. The data further support that attaching a payload to a HSP90 binding ligand blocks the target activity of the payload. The HSP90 bindings of the HSP90 ligands are not affected.
# Caco-2 cells = experiment: Caco-2 cell monolayer permeability assay; type: in vitro ADME, human; details: Caco-2
# From the text: (§1) In order to test the ability of the payloads and/or conjugates to enter cells, a cell monolayer assay was utilized employing Caco-2 cells (a human epithelial colorectal adenocarcinoma cell line).
# (§2) Experimental Procedure: Caco-2 cells grown in tissue culture flasks are trypsinized, suspended in medium, and the suspensions were applied to wells of a Millipore 96 well Caco-2 plate. The cells are allowed to grow and differentiate for three weeks, feeding at 2-day intervals. For Apical to Basolateral (A→B) permeability, the test agent is added to the apical (A) side and amount of permeation is determined on the basolateral (B) side; for Basolateral to Apical (B→A) permeability, the test agent is added to the B side and the amount of permeation is determine on the A side.
# [1] = Caco-2 cell monolayer permeability assay; type: in vitro ADME, human; details: human
# From the text: as §1, §2
# human total EbB2/Her2 = experiment: HER2 degradation assay (ELISA) in BT474 cells; type: cell-based; details: BT-474, 16 hrs, read-out: Her2 Degradation IC50 Abs IC50
# Method: BT474 (breast cancer) cells were plated at 12,000 cells per well and incubated for 20-24 hrs at 37° C. at 5% CO2. Post cell incubation, compounds were reconstituted in DMSO to a stock concentration of 5 mM. A compound plate was then prepared containing a 10 point dilution in DMSO. 2 uL of these dilutions were then added to the cells for a final working concentration of 5 uM to 0.0003 uM. Compounds and cells were incubated for 16 hrs. Media was then removed, cells washed, lysed, and analyzed for human total EbB2/Her2 levels by ELISA.
# [2] = tested on: SKOV3 (ovarian cancer) tumor xenograft; experiment: SKOV3 ovarian cancer xenograft; type: in vivo, mice; details: Conjugate 38 IV 25 mg/kg vs Copanlisib 6 mg/kg, FIG. 3B
# Method: (§3) PIK3A mutations occur in about 15% to 30% of breast, endometrial and colon cancers. In additional to LS174t model, other xenograft models harboring common PIK3CA mutations were chosen for testing. In one study, mice bearing SKOV3 (ovarian cancer) tumor xenograft were treated with IV dose of Conjugate 38 at 25 mg/kg and Copanlisib at 6 mg/kg. Doses were selected based on the maximum tolerated dose. In another study, mice bearing BT474 (breast cancer) tumor xenograft were treated with IV dose of Conjugate 38 at 25 mg/kg and Copanlisib at 6 mg/kg.
# [3] = tested on: BT474 (breast cancer) tumor xenograft; experiment: BT474 breast cancer xenograft; type: in vivo, mice; details: Conjugate 38 IV 25 mg/kg vs Copanlisib 6 mg/kg, FIG. 3C
# Method: as §3
# [4] = type: in vivo, mice; details: LS174t xenograft, FIG. 4
# Method: Accumulation and retention of Conjugate 38 was tested in this tumor xenograft model.
# NCI-H460 cells = experiment: NCI-H460 tumor cell cytotoxicity assay (CellTiter-Glo); type: cell-based; details: Homo sapiens, NCI-H460, 48 h
# Method: NCI-H460 cells (non-small cell lung cancer) were plated at 500 cells per well and incubated for 20-24 hrs at 37° C. at 5% CO2. Post cell incubation, compounds were reconstituted in DMSO to a stock concentration of 200 uM. A compound plate was then prepared containing a 10 point dilution in RPMI+10% FBS+0.25% DMSO. 5 uL of the dilution was then added for a final working concentration range of 10 uM to 0.0005 uM. Compounds and cells were then incubated for 48 hrs. Cells were then analyzed by CellTiter-Glo for ATP levels and percent inhibition calculated.
# [5] = Glucose levels post dosing in mice; type: in vivo; details: FIG. 7, in words
# From the text: In an in vivo study in mice, glucose levels were monitored post PI3K inhibitor (Copanlisib) and Conjugate 38 dosing. […] Therefore, conjugating a PI3K enzyme inhibitor payload to a HSP90 targeting ligand reduced the normal tissue activity of glucose increase in mice.
# pAKT (S473) = experiment: LS174t tumor xenograft, pharmacodynamic response; type: in vivo, mice; details: through the course of 48 h, FIG. 5, in words
# H460 mouse tumor PK = type: in vivo, mice; details: for concentration at 96 h / concentration at 144 h: mouse, in vivo, 25 mg/kg, 25 mg/kg IV, read-out: Conjugate 38 Conc. in H460 Mouse Tumor
# Method: Conjugate and unconjugated payload accumulation at 96 and 144 h in H460 tumor-bearing mice. Conjugate 38 was dosed at 25 mg/kg intravenously.
# PI3K = experiment: Cell free PI3K enzyme assay; type: biochemical; details: FIG. 6, in words
# From the text: Therefore, conjugating a PI3K enzyme inhibitor payload to a HSP90 targeting ligand masked the PI3K enzyme inhibition.
# [6] = tested on: H1975 cells (non-small cell lung cancer) xenograft; experiment: H1975 xenograft study; type: in vivo, mice; details: 12.5 mg/kg twice a week intravenously, Day 19, compared to vehicle control
# Method: Female athymic nude mice were implanted with 5×10^6 H1975 cells (non-small cell lung cancer) per mouse in the right hind flank. Once tumors reached a volume of 50 mm^3 to 150 mm^3 they were randomized into two groups of ten to obtain a group average starting tumor volume of 114.4 mm^3. Mice were then treated with either a vehicle control or 12.5 mg/kg of Conjugate 38. All dosing was carried out twice a week intravenously for three weeks, with five total doses being administered. Tumor volumes of the mice were measured. Final study measurements were taken on Day 19, at which point the study was terminated due to vehicle control tumor volumes approaching IACUC limits.
# [7] = tested on: LS174t colon tumor xenograft; experiment: LS174t colon tumor xenograft model, efficacy; type: in vivo, mice; details: FIG. 3A, in words
# [8] = tested on: H460 lung cancer xenograft; experiment: H460 lung cancer xenograft model; type: in vivo, mice; details: FIG. 2, in words
compound,measurement,setting,value
CCNC(=O)c1nnc(-c2cc(C(C)C)c(O)cc2O)n1-c1ccc(N(C)C2CCN(C(=O)CCC(=O)OC[C@H](O)Cn3cnc4c(c(Nc5ccc(I)cc5F)c(F)c(=O)n4C)c3=O)CC2)cc1 [Conjugate 47],MEK activity compared with payload TAK-733,MEK,lower than its payload
COc1c(OCCCN2CCNCC2)ccc2c1N=C(NC(=O)c1cnc(N)nc1)N1CCN=C21 [Compound 27A],permeability in words,Caco-2 cells,very low permeability
same,Papp A→B,"[1]; Caco-2, A to B direction",0.0032 ×10⁻⁶ cm/s
same,Papp B→A,"[1]; Caco-2, B to A direction",0.0162 ×10⁻⁶ cm/s
CCNC(=O)c1nnc(-c2cc(C(C)C)c(O)cc2O)n1-c1ccc(CN2CCN(C(=O)Cc3ccc(OC(=O)N4CCN(CCCOc5ccc6c(c5OC)N=C(NC(=O)c5cnc(N)nc5)N5CCN=C65)CC4)cc3)CC2)cc1 [Compound 38],IC50,human total EbB2/Her2,39 nM
same,tumor growth inhibition compared to Copanlisib,[2],statistically significant increase in tumor growth inhibition
same,tumor growth inhibition compared to Copanlisib,[3],statistically significant increase in tumor growth inhibition
same,time remaining in the tumor xenograft and releasing active PI3K inhibitor payload,[4],> 96 h
same,IC50,"NCI-H460 cells; n = 1, read-out: H460 in vitro cytotoxicity",8.2 nM
same,IC50,"NCI-H460 cells; n = 2, read-out: H460 in vitro cytotoxicity",7.4 nM
same,glucose concentration after dosing,[5],lower glucose concentrations than mice treated with the PI3K inhibitor payload
same,inhibition of PI3K shown by pAKT (S473),pAKT (S473),significant reduction of pAKT (S473)
same,accumulation and retention in xenograft tumor tissue,"H460 mouse tumor PK; H460 tumor-bearing mice, in words",accumulated and was retained in xenograph tumor tissue
same,concentration at 96 h,H460 mouse tumor PK; Animal ID 1,6.2 µM
same,concentration at 96 h,H460 mouse tumor PK; Animal ID 2,7.6 µM
same,concentration at 96 h,H460 mouse tumor PK; Animal ID 3,6.25 µM
same,concentration at 96 h,H460 mouse tumor PK; Mean,6.68 µM
same,concentration at 144 h,H460 mouse tumor PK; Animal ID 1,0.84 µM
same,concentration at 144 h,H460 mouse tumor PK; Animal ID 2,3.61 µM
same,concentration at 144 h,H460 mouse tumor PK; Animal ID 3,1.57 µM
same,concentration at 144 h,H460 mouse tumor PK; Mean,2.01 µM
same,PI3K enzyme inhibition compared with payload,PI3K,much less active than its PI3K enzyme inhibitor payload
same,tumor growth inhibition,[6],70.8%
same,efficacy (tumor growth inhibition) in LS174t xenograft,[7],significant tumor growth inhibition
same,efficacy compared with combination therapy of copanlisib and ganetespib,[7]; LS174t xenograft,worked much better than a combination therapy comprising copanlisib and ganetespib
same,efficacy (tumor volumes) in H460 xenograft,[8],superior to Copanlisib alone or ganetespib alone
